{"source": "paper PMC8455565", "about": "(Scientific Reports, 2021)", "key": {"BTK [1]": {"target": "T1, BTK (Homo sapiens, UniProt Q06187)", "T1 sequence (Q06187 whole entry)": "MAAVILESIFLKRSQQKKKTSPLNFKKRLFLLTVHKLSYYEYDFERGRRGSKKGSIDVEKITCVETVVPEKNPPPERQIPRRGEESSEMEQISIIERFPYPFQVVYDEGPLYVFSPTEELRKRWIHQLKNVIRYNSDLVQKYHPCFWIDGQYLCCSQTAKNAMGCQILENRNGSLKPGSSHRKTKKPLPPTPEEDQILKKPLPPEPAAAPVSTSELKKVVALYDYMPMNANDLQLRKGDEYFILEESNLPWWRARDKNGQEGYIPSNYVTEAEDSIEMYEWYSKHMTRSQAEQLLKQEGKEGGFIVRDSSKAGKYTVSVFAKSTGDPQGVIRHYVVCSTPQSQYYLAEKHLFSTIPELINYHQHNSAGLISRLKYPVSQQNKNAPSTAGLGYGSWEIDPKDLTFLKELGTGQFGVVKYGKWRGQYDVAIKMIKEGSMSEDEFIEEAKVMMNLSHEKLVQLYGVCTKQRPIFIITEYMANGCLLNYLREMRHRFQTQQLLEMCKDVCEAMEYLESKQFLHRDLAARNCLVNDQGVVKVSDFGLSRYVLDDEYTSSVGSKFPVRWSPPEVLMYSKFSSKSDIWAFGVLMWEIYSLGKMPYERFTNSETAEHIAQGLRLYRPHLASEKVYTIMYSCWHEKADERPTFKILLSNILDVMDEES", "test": "BTK kinase activity, Z'-LYTE FRET biochemical assay", "parameters": "purchased Thermo Fisher Scientific PV3363", "conditions": "mean ± S.D; read-out: IC50, hBTK biochemical assay", "experimental": "The kinase activity of BTK was measured using the Z′-LYTE assay based on fluorescence resonance energy transfer (FRET). […] Briefly, BTK, peptide, ATP and inhibitor mixtures were incubated for 1 h at room temperature. Then, Development Reagent A was added to each well, and incubation proceeded for another 1 h. […] The data were analyzed by GraphPad Prism 6 (GraphPad Software, CA, USA) to determine the IC50 values."}, "STAT5 (Y694)": {"test_system": "STAT5 (Y694)", "test": "IL-2-stimulated STAT5 phosphorylation (JAK3 signaling) in T and NK cells", "type": "cell-based, human", "conditions": "30 μM", "experimental": "(§1) The analysis measured 94 intracellular signaling nodes (81 phosphorylation sites, 10 total protein levels and 3 methylation/acetylation sites) in stimulated immune cells, including B cells (IgM plus CD40L), CD4 + and CD8 + T cells (IL-2; CD3 plus CD28), monocytes (M-CSF), NK cells (IL-2), and granulocytes (LPS)."}, "[2]": {"test": "Plasma pharmacokinetics in CIA model rats", "type": "in vivo", "conditions": "Lewis, rat; for AUC(0-t) / Tmax / Cmax: day 9, mean ± SD; for Cmax: po", "experimental": "After drug administration, whole blood was collected from CIA model rats and human subjects at the indicated times. Plasma was obtained by centrifugation at 12,000 rpm for 2 min and stored at − 20 °C until analysis."}, "Neutrophils (LPS)": {"test_system": "Neutrophils (LPS)", "test": "High-dimensional phosphorylation analysis, Neutrophils (LPS)", "type": "cell-based, human", "conditions": "30 µM, 15'", "experimental": "as §1"}, "BTK [3]": {"target": "T1, BTK", "test": "BTK occupancy in B cell line (Ramos cells, biotinylated probe, AlphaScreen)", "type": "cell-based", "experimental": "A total of 5 × 10^5 Ramos cells/well were plated in 96-well PDL-coated plates in DMEM with high glucose (GIBCO) supplemented with 10% FBS. Serial dilutions of LY3439943 in DMSO (final DMSO concentration, 0.4%) were incubated with the cells for 1 h at 37 °C. An equal volume of a covalent biotinylated BTK probe was added (final concentration, 167 nM), and the cells were incubated for another 1 h at 37 °C. The cells were lysed, and the amount of BTK was determined using the AlphaScreen IgG Detection Kit (Perkin Elmer 6760617R) and an anti-BTK antibody (Thermo Scientific Cat# MA5-14929) following the manufacturer’s instructions. The signal was measured at 615 nm with an Envision plate reader (Perkin Elmer)."}, "CTLL-2": {"test_system": "CTLL-2", "test": "IL-2 induced T cell proliferation in CTLL-2", "type": "cell-based", "conditions": "Mus musculus, cellular level"}, "Monocytes (M-CSF)": {"test_system": "Monocytes (M-CSF)", "test": "High-dimensional phosphorylation analysis, Monocytes (M-CSF)", "type": "cell-based, human", "experimental": "as §1"}, "CD4+ Memory (CD3+CD28)": {"test_system": "CD4+ Memory (CD3+CD28)", "test": "High-dimensional phosphorylation analysis, CD4+ Memory (CD3+CD28)", "type": "cell-based, human", "conditions": "30 µM, 5'", "experimental": "as §1"}, "ITK": {"target": "T2, ITK (Homo sapiens, UniProt Q08881)", "T2 sequence (Q08881 1-620)": "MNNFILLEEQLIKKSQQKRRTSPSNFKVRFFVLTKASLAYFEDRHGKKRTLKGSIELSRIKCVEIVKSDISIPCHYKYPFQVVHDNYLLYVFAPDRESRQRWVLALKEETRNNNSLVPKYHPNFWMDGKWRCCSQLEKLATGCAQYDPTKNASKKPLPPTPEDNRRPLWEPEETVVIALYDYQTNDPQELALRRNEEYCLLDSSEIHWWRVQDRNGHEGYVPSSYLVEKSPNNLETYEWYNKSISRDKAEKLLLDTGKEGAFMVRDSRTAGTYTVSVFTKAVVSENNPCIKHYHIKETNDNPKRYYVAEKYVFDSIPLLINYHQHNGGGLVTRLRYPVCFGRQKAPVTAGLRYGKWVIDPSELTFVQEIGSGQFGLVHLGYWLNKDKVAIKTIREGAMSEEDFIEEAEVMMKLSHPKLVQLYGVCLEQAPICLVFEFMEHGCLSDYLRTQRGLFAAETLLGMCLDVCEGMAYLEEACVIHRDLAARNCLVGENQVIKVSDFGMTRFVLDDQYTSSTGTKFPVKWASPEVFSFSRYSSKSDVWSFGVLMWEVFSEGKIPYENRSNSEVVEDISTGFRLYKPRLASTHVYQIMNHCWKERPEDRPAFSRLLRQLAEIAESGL", "test": "Kinase selectivity biochemical assay, ITK"}, "CIA model rats": {"test_system": "CIA model rats", "test": "Collagen-induced arthritis (CIA) model, clinical score and body weight", "type": "in vivo, rat", "conditions": "for Arthritis clinical score: day 8, mean ± SEM", "experimental": "All animals were obtained from Charles River Japan (150 ± 10 g, 6 weeks old). The experimental protocols were approved by the animal care and use committee of the Hanmi Research Center and performed in accordance with approved guidelines. Briefly, 7-week-old male Lewis rats were immunized with a collagen emulsion of equal volumes of IFA ([…], Sigma-Aldrich) and bovine type II collagen (total volume, 0.6 mL) via intradermal injection into the base of the tail. Seven days later, the rats were given a booster immunization of 0.3 ml of collagen emulsion in the same manner. The incidence of arthritis was 79% on day 6 after booster immunization, and the rats were randomized into 4 groups when the average clinical score of each animal was 2.8 (on a scale of 16) (n = 20 in each drug-administered group, n = 8 in the CIA control group). […] The arthritis score was determined by grading each paw from 0 to 4 based on erythema, swelling, and flexion of the joint. Body weight was also measured three times per week."}}}
{"smiles": "C=CC(=O)Nc1cccc(Oc2nc(Nc3ccc(N4CCN(C)CC4)cc3)nc3ccoc23)c1", "note": "[Poseltinib]", "values": [{"measurement": "IC50", "setting": "BTK [1]", "result": 4, "unit": "nM"}, {"measurement": "IL-2-stimulated phosphorylation of STAT5 (Y694)", "setting": "STAT5 (Y694); CD4 + T cells", "result": "inhibited"}, {"measurement": "IL-2-stimulated phosphorylation of STAT5 (Y694)", "setting": "STAT5 (Y694); CD8 + T cells", "result": "inhibited"}, {"measurement": "IL-2-stimulated phosphorylation of STAT5 (Y694)", "setting": "STAT5 (Y694); NK cells", "result": "inhibited"}, {"measurement": "AUC(0-t)", "setting": "[2]; 0.3 mg/kg oral", "result": "2 ± 1.8", "unit": "ng·h/mL"}, {"measurement": "Tmax", "setting": "[2]; 0.3 mg/kg oral", "result": "36 ± 18", "unit": "min"}, {"measurement": "AUC(0-t)", "setting": "[2]; 1 mg/kg oral", "result": "10 ± 3.6", "unit": "ng·h/mL"}, {"measurement": "Tmax", "setting": "[2]; 1 mg/kg oral", "result": 30, "unit": "min"}, {"measurement": "AUC(0-t)", "setting": "[2]; 3 mg/kg oral", "result": "49.9 ± 10.4", "unit": "ng·h/mL"}, {"measurement": "Tmax", "setting": "[2]; 3 mg/kg oral", "result": "84 ± 108", "unit": "min"}, {"measurement": "concentration at 4 h", "setting": "[2]; oral, all treatment groups (0.3, 1, 3 mg/kg), day 9, below LLOQ, read-out: plasma concentration at 4 h after drug administration", "result": "< 0.5", "unit": "ng/mL"}, {"measurement": "Cmax", "setting": "[2]; 0.3 mg/kg, 0.3 mg/kg oral", "result": "1.5 ± 0.5", "unit": "ng/mL"}, {"measurement": "Cmax", "setting": "[2]; 1 mg/kg, 1 mg/kg oral", "result": "7.3 ± 3.3", "unit": "ng/mL"}, {"measurement": "Cmax", "setting": "[2]; 3 mg/kg, 3 mg/kg oral", "result": "22.6 ± 2.3", "unit": "ng/mL"}, {"measurement": "4ebp1 phosphorylation, Log2Ratio Stim/Control", "setting": "Neutrophils (LPS)", "result": 0.28}, {"measurement": "AKT1 phosphorylation, Log2Ratio Stim/Control", "setting": "Neutrophils (LPS)", "result": 0.66}, {"measurement": "AMPK phosphorylation, Log2Ratio Stim/Control", "setting": "Neutrophils (LPS)", "result": 0.29}, {"measurement": "Akt phosphorylation, Log2Ratio Stim/Control", "setting": "Neutrophils (LPS)", "result": 0.66}, {"measurement": "BTK phosphorylation, Log2Ratio Stim/Control", "setting": "Neutrophils (LPS)", "result": -0.25}, {"measurement": "HSP27 phosphorylation, Log2Ratio Stim/Control", "setting": "Neutrophils (LPS)", "result": 0.34}, {"measurement": "MAP2K1 phosphorylation, Log2Ratio Stim/Control", "setting": "Neutrophils (LPS)", "result": 2.38}, {"measurement": "MNK phosphorylation, Log2Ratio Stim/Control", "setting": "Neutrophils (LPS)", "result": 0.40}, {"measurement": "RPS6 phosphorylation, Log2Ratio Stim/Control", "setting": "Neutrophils (LPS)", "result": 0.66}, {"measurement": "IC50", "setting": "BTK [3]", "result": 5, "unit": "nM"}, {"measurement": "IC50", "setting": "CTLL-2", "result": "> 500", "unit": "nM"}, {"measurement": "AKT1 phosphorylation, Log2Ratio Stim/Control", "setting": "Monocytes (M-CSF); 30 µM, 5'", "result": 0.41}, {"measurement": "Akt phosphorylation, Log2Ratio Stim/Control", "setting": "Monocytes (M-CSF); 30 µM, 5'", "result": 1.06}, {"measurement": "BTK phosphorylation, Log2Ratio Stim/Control", "setting": "Monocytes (M-CSF); 30 µM, 5'", "result": -0.12}, {"measurement": "GSK3B phosphorylation, Log2Ratio Stim/Control", "setting": "Monocytes (M-CSF); 30 µM, 5'", "result": 0.82}, {"measurement": "HSP27 phosphorylation, Log2Ratio Stim/Control", "setting": "Monocytes (M-CSF); 30 µM, 5'", "result": 1.80}, {"measurement": "MAPK3 phosphorylation, Log2Ratio Stim/Control", "setting": "Monocytes (M-CSF); 30 µM, 5'", "result": 1.88}, {"measurement": "NDRG1 phosphorylation, Log2Ratio Stim/Control", "setting": "Monocytes (M-CSF); 30 µM, 5'", "result": 0.97}, {"measurement": "RELB phosphorylation, Log2Ratio Stim/Control", "setting": "Monocytes (M-CSF); 30 µM, 5'", "result": 0.82}, {"measurement": "RPS6KA1 phosphorylation, Log2Ratio Stim/Control", "setting": "Monocytes (M-CSF); 30 µM, 5'", "result": 1.33}, {"measurement": "RPS6 phosphorylation, Log2Ratio Stim/Control", "setting": "Monocytes (M-CSF); 30 µM, 5'", "result": 0.89}, {"measurement": "AKT phosphorylation in monocytes stimulated with M-CSF", "setting": "Monocytes (M-CSF); data not shown", "result": "did not inhibit"}, {"measurement": "BTK phosphorylation, Log2Ratio Stim/Control", "setting": "CD4+ Memory (CD3+CD28)", "result": 1.21}, {"measurement": "CD247 phosphorylation, Log2Ratio Stim/Control", "setting": "CD4+ Memory (CD3+CD28)", "result": 2.86}, {"measurement": "CrkL phosphorylation, Log2Ratio Stim/Control", "setting": "CD4+ Memory (CD3+CD28)", "result": 1.63}, {"measurement": "LCK phosphorylation, Log2Ratio Stim/Control", "setting": "CD4+ Memory (CD3+CD28)", "result": 1.51}, {"measurement": "PLCγ2 phosphorylation, Log2Ratio Stim/Control", "setting": "CD4+ Memory (CD3+CD28)", "result": 2.43}, {"measurement": "PTK2B phosphorylation, Log2Ratio Stim/Control", "setting": "CD4+ Memory (CD3+CD28)", "result": 0.93}, {"measurement": "SLP76 phosphorylation, Log2Ratio Stim/Control", "setting": "CD4+ Memory (CD3+CD28)", "result": 1.63}, {"measurement": "Src phosphorylation, Log2Ratio Stim/Control", "setting": "CD4+ Memory (CD3+CD28)", "result": 0.82}, {"measurement": "ZAP70 phosphorylation, Log2Ratio Stim/Control", "setting": "CD4+ Memory (CD3+CD28)", "result": 1.22}, {"measurement": "selectivity toward BTK over ITK", "setting": "ITK", "result": 53, "unit": "×"}, {"measurement": "Arthritis clinical score", "setting": "CIA model rats; 0.3 mg/kg oral once daily", "result": "8.5 ± 0.5"}, {"measurement": "Arthritis clinical score", "setting": "CIA model rats; 1 mg/kg oral once daily", "result": "6.7 ± 0.6"}, {"measurement": "disease-induced body weight loss", "setting": "CIA model rats; 3 mg/kg", "result": "prevented weight loss"}, {"measurement": "Arthritis clinical score", "setting": "CIA model rats; 3 mg/kg oral once daily", "result": "2.7 ± 0.4"}]}
